Tested on: MV-4-11 cells
Assay: Gene expression microarray analysis (Affymetrix PrimeView) and GSEA
Assay type: cell-based, human
Set-up: RFU PODN (11730768_x_at) / Fold change /veh PODN (11730768_x_at) / RFU LINC00158 (11744669_a_at) / Fold change /veh LINC00158 (11744669_a_at) / RFU DUSP10 (11751237_a_at) / Fold change /veh DUSP10 (11751237_a_at) / RFU ID3 (11757404_x_at) / Fold change /veh ID3 (11757404_x_at) / RFU PLEKHG5 (11737974_s_at) / Fold change /veh PLEKHG5 (11737974_s_at) / RFU LRRC4B (11730491_at) / Fold change /veh LRRC4B (11730491_at) / RFU GIMAP4 (11747438_a_at) / Fold change /veh GIMAP4 (11747438_a_at) / RFU KRT8 (11758183_x_at) / Fold change /veh KRT8 (11758183_x_at) / RFU CNN1 (11734310_a_at) / Fold change /veh CNN1 (11734310_a_at) / RFU VPS37D (11726825_at) / Fold change /veh VPS37D (11726825_at) / RFU C10orf10 (11716522_x_at) / Fold change /veh C10orf10 (11716522_x_at) / RFU KIR2DL2 /// KIR2DL4 /// KIR2DL5A /// KIR2DL5B /// KIR2DS1 /// KIR2DS2 /// KIR2DS3 /// KIR2DS4 /// KIR3DL3 /// KIR3DL3 /// KIR3DS1 (11738374_at) / Fold change /veh KIR2DL2 /// KIR2DL4 /// KIR2DL5A /// KIR2DL5B /// KIR2DS1 /// KIR2DS2 /// KIR2DS3 /// KIR2DS4 /// KIR3DL3 /// KIR3DL3 /// KIR3DS1 (11738374_at) / RFU C1QL1 (11718748_at) / Fold change /veh C1QL1 (11718748_at) / RFU TMPRSS4 (11747572_a_at) / Fold change /veh TMPRSS4 (11747572_a_at) / RFU HAMP (11756126_x_at) / Fold change /veh HAMP (11756126_x_at) / RFU RNFT2 (11725882_a_at) / Fold change /veh RNFT2 (11725882_a_at) / RFU NR4A2 (11747474_a_at) / Fold change /veh NR4A2 (11747474_a_at) / RFU ABCC12 (11746883_a_at) / Fold change /veh ABCC12 (11746883_a_at) / RFU TMEM136 (11760407_x_at) / Fold change /veh TMEM136 (11760407_x_at) / RFU CLDN22 /// WWC2 (11732394_at) / Fold change /veh CLDN22 /// WWC2 (11732394_at) / RFU HLA-DPB1 (11760878_x_at) / Fold change /veh HLA-DPB1 (11760878_x_at) / RFU SPINT1 (11716480_a_at) / Fold change /veh SPINT1 (11716480_a_at) / RFU GAP43 (11754022_s_at) / Fold change /veh GAP43 (11754022_s_at) / RFU A4GNT (11735810_at) / Fold change /veh A4GNT (11735810_at) / RFU PRB3 (11715151_x_at) / Fold change /veh PRB3 (11715151_x_at) / RFU TUBB4B (11761932_at) / Fold change /veh TUBB4B (11761932_at) / RFU CAPN14 (11732068_a_at) / Fold change /veh CAPN14 (11732068_a_at) / RFU TMCC2 (11721928_a_at) / Fold change /veh TMCC2 (11721928_a_at) / RFU IRGQ (11745062_a_at) / Fold change /veh IRGQ (11745062_a_at) / RFU FAM174B (11720279_a_at) / Fold change /veh FAM174B (11720279_a_at) / RFU TMPRSS4 (11748680_a_at) / Fold change /veh TMPRSS4 (11748680_a_at) / RFU FAM212B (11763350_a_at) / Fold change /veh FAM212B (11763350_a_at) / RFU PLEKHG5 (11743358_a_at) / Fold change /veh PLEKHG5 (11743358_a_at) / RFU ZSCAN30 (11745921_a_at) / Fold change /veh ZSCAN30 (11745921_a_at) / RFU CMKLR1 (11741424_a_at) / Fold change /veh CMKLR1 (11741424_a_at) / RFU LOC101060620 /// MAPK8IP1 (11723275_at) / Fold change /veh LOC101060620 /// MAPK8IP1 (11723275_at) / RFU SPTSSB (11747773_x_at) / Fold change /veh SPTSSB (11747773_x_at) / RFU PRSS12 (11739890_at) / Fold change /veh PRSS12 (11739890_at) / RFU BIN1 (11741810_x_at) / Fold change /veh BIN1 (11741810_x_at) / RFU WNT11 (11732464_a_at) / Fold change /veh WNT11 (11732464_a_at) / RFU C10orf10 (11716521_a_at) / Fold change /veh C10orf10 (11716521_a_at) / RFU C5orf56 (11738089_at) / Fold change /veh C5orf56 (11738089_at) / RFU CYB561 (11721691_x_at) / Fold change /veh CYB561 (11721691_x_at) / RFU ANKRD19P (11752326_a_at) / Fold change /veh ANKRD19P (11752326_a_at) / RFU OR2T12 /// OR2T33 /// OR2T8 (11738714_s_at) / Fold change /veh OR2T12 /// OR2T33 /// OR2T8 (11738714_s_at) / RFU VCAN (11748164_a_at) / Fold change /veh VCAN (11748164_a_at) / RFU JSRP1 (11732532_at) / Fold change /veh JSRP1 (11732532_at) / RFU KRTAP10-11 (11738290_x_at) / Fold change /veh KRTAP10-11 (11738290_x_at) / RFU MYO3A (11730013_a_at) / Fold change /veh MYO3A (11730013_a_at) / RFU EBF3 (11725865_a_at) / Fold change /veh EBF3 (11725865_a_at) / RFU CAMK2N1 (11719241_x_at) / Fold change /veh CAMK2N1 (11719241_x_at) / RFU C5orf56 (11738088_a_at) / Fold change /veh C5orf56 (11738088_a_at) / RFU OLFML3 (11715873_a_at) / Fold change /veh OLFML3 (11715873_a_at) / RFU LOC100653217 /// NTM (11731650_a_at) / Fold change /veh LOC100653217 /// NTM (11731650_a_at) / RFU MAPK11 (11762145_a_at) / Fold change /veh MAPK11 (11762145_a_at) / RFU FIZ1 (11724087_x_at) / Fold change /veh FIZ1 (11724087_x_at) / RFU OASL (11726364_x_at) / Fold change /veh OASL (11726364_x_at) / RFU SOX15 (11748057_x_at) / Fold change /veh SOX15 (11748057_x_at) / RFU CD79A (11719716_a_at) / Fold change /veh CD79A (11719716_a_at) / RFU HIST1H1D (11736915_at) / Fold change /veh HIST1H1D (11736915_at) / RFU CASKIN2 (11723855_a_at) / Fold change /veh CASKIN2 (11723855_a_at) / RFU LOC730098 (11760151_x_at) / Fold change /veh LOC730098 (11760151_x_at) / RFU OR4N2 (11742367_at) / Fold change /veh OR4N2 (11742367_at) / RFU PRRT2 (11749266_a_at) / Fold change /veh PRRT2 (11749266_a_at) / RFU SNX32 (11753110_a_at) / Fold change /veh SNX32 (11753110_a_at) / RFU CDHR5 (11726645_a_at) / Fold change /veh CDHR5 (11726645_a_at) / RFU RCAN1 (11760418_a_at) / Fold change /veh RCAN1 (11760418_a_at) / RFU FAM167A (11723789_a_at) / Fold change /veh FAM167A (11723789_a_at) / RFU FAM26E (11764081_at) / Fold change /veh FAM26E (11764081_at) / RFU ISYNA1 (11749810_s_at) / Fold change /veh ISYNA1 (11749810_s_at) / RFU ACY1 (11761880_at) / Fold change /veh ACY1 (11761880_at) / RFU 11764098_at / Fold change /veh 11764098_at / RFU SAMD14 (11745864_x_at) / Fold change /veh SAMD14 (11745864_x_at) / RFU NPB (11741838_a_at) / Fold change /veh NPB (11741838_a_at) / RFU TMPRSS6 (11731388_a_at) / Fold change /veh TMPRSS6 (11731388_a_at) / RFU KRTAP10-2 (11738614_at) / Fold change /veh KRTAP10-2 (11738614_at) / RFU ARHGAP8 /// PRR5-ARHGAP8 (11727945_x_at) / Fold change /veh ARHGAP8 /// PRR5-ARHGAP8 (11727945_x_at) / RFU KRTAP5-7 /// NADSYN1 (11734609_at) / Fold change /veh KRTAP5-7 /// NADSYN1 (11734609_at) / RFU RASL12 (11751679_a_at) / Fold change /veh RASL12 (11751679_a_at) / RFU CDKN2B (11736163_a_at) / Fold change /veh CDKN2B (11736163_a_at) / RFU PRF1 (11729649_at) / Fold change /veh PRF1 (11729649_at) / RFU, ZNF638 /// ZNF638-IT1 / Fold change vs veh, ZNF638 /// ZNF638-IT1 / RFU, PANK3 / Fold change vs veh, PANK3 / RFU, SH3YL1 / Fold change vs veh, SH3YL1 / RFU, ZEB2 / Fold change vs veh, ZEB2 / RFU, NRIP1 / Fold change vs veh, NRIP1 / RFU, PTTG1IP / Fold change vs veh, PTTG1IP / RFU, CAPN2 / Fold change vs veh, CAPN2 / RFU, MED14 / Fold change vs veh, MED14 / RFU, SNORA58 / Fold change vs veh, SNORA58 / RFU, C1orf63 / Fold change vs veh, C1orf63 / RFU, LRRFIP1 / Fold change vs veh, LRRFIP1 / RFU, NDUFAF7 / Fold change vs veh, NDUFAF7 / RFU, SLC12A2 / Fold change vs veh, SLC12A2 / RFU, IBTK / Fold change vs veh, IBTK / RFU, ESF1 / Fold change vs veh, ESF1 / Fold change vs veh, TMEM50B / RFU, TAOK1 / Fold change vs veh, TAOK1 / RFU, ACBD3 / Fold change vs veh, ACBD3 / RFU, TMA16 / Fold change vs veh, TMA16 / RFU, RWDD3 / Fold change vs veh, RWDD3 / RFU, BCAT1 / Fold change vs veh, BCAT1 / RFU, EDEM3 / Fold change vs veh, EDEM3 / RFU, TMEM33 / Fold change vs veh, TMEM33 / RFU, WDR75 / Fold change vs veh, WDR75 / RFU, AHCTF1 / Fold change vs veh, AHCTF1 / RFU, TFRC / Fold change vs veh, TFRC / RFU, ZDHHC17 / Fold change vs veh, ZDHHC17 / RFU, NOM1 / Fold change vs veh, NOM1 / RFU, ARL8B / Fold change vs veh, ARL8B / RFU, ZBTB11 / Fold change vs veh, ZBTB11 / RFU, TAMM41 / Fold change vs veh, TAMM41 / RFU, KIAA1704 /// LOC100996395 / Fold change vs veh, KIAA1704 /// LOC100996395 / RFU, ING1 / Fold change vs veh, ING1 / RFU, TRMT61B / Fold change vs veh, TRMT61B / RFU, FUBP3 / Fold change vs veh, FUBP3 / RFU, TP53 / Fold change vs veh, TP53 / RFU, TNKS2 / Fold change vs veh, TNKS2 / RFU, ZFP14 / Fold change vs veh, ZFP14 / RFU, ACTR2 / Fold change vs veh, ACTR2 / RFU, PPP3R1 / Fold change vs veh, PPP3R1 / RFU, PIK3R1 / Fold change vs veh, PIK3R1 / RFU, HNRNPA1 / Fold change vs veh, HNRNPA1 / RFU, RNF170 / Fold change vs veh, RNF170 / RFU, ZNF28 / Fold change vs veh, ZNF28 / RFU, RNGTT / Fold change vs veh, RNGTT / RFU, OGT / Fold change vs veh, OGT / RFU, BRD1 / Fold change vs veh, BRD1 / RFU, MARS / Fold change vs veh, MARS / RFU, ZNF655 / Fold change vs veh, ZNF655 / RFU, FAHD1 / Fold change vs veh, FAHD1 / RFU, BDP1 / Fold change vs veh, BDP1 / RFU, LRRCC1 / Fold change vs veh, LRRCC1 / RFU, ARID1A / Fold change vs veh, ARID1A / RFU, ZNF146 / Fold change vs veh, ZNF146 / RFU, ZNF330 / Fold change vs veh, ZNF330 / RFU, GPN3 / Fold change vs veh, GPN3 / RFU, C9orf123 / Fold change vs veh, C9orf123 / RFU, N4BP2L2 / Fold change vs veh, N4BP2L2 / RFU, ARFIP1 / Fold change vs veh, ARFIP1 / RFU, FAM179B / Fold change vs veh, FAM179B / RFU, BCL10 / Fold change vs veh, BCL10 / RFU, UHRF1BP1L / Fold change vs veh, UHRF1BP1L / RFU, BET1 / Fold change vs veh, BET1 / RFU, CNOT2 / Fold change vs veh, CNOT2 / RFU, ZNF268 / Fold change vs veh, ZNF268 / Fold change vs veh, ZNF507 / RFU, DGCR2 / Fold change vs veh, DGCR2 / RFU, WDSUB1 / Fold change vs veh, WDSUB1 / Fold change vs veh, HSP90B1 /// MIR3652 / RFU, ADSS / Fold change vs veh, ADSS / RFU, GK / Fold change vs veh, GK / RFU, ZNF148 / Fold change vs veh, ZNF148 / RFU, TAF9 / Fold change vs veh, TAF9 / RFU, SLC1A5 / Fold change vs veh, SLC1A5 / RFU, SLMO2 / Fold change vs veh, SLMO2 / RFU, ABCC4 / Fold change vs veh, ABCC4 / RFU, LOC101060439 /// RAP1B / Fold change vs veh, LOC101060439 /// RAP1B / RFU, RFX7 / Fold change vs veh, RFX7 / RFU, GTPBP10 / Fold change vs veh, GTPBP10 / RFU, CNEP1R1 / Fold change vs veh, CNEP1R1 / RFU, BIVM-ERCC5 /// ERCC5 / Fold change vs veh, BIVM-ERCC5 /// ERCC5 / RFU, ILF3 / Fold change vs veh, ILF3 / RFU 11762660_at / Fold change /veh 11762660_at / RFU VCAN (11757783_s_at) / Fold change /veh VCAN (11757783_s_at) / RFU DDX43 (11728927_at) / Fold change /veh DDX43 (11728927_at) / RFU KRT8 (11758188_x_at) / Fold change /veh KRT8 (11758188_x_at) / RFU NKD1 (11759106_at) / Fold change /veh NKD1 (11759106_at) / RFU SRD5A1 (11742802_a_at) / Fold change /veh SRD5A1 (11742802_a_at) / RFU TPSAB1 /// TPSB2 (11721975_s_at) / Fold change /veh TPSAB1 /// TPSB2 (11721975_s_at) / RFU GSTM3 (11746129_a_at) / Fold change /veh GSTM3 (11746129_a_at) / RFU IL23R (11737362_x_at) / Fold change /veh IL23R (11737362_x_at) / RFU TMEM51 (11727254_a_at) / Fold change /veh TMEM51 (11727254_a_at) / RFU PIWIL2 (11732686_x_at) / Fold change /veh PIWIL2 (11732686_x_at) / RFU ORM1 (11744905_x_at) / Fold change /veh ORM1 (11744905_x_at) / RFU CCDC152 (11743942_at) / Fold change /veh CCDC152 (11743942_at) / RFU ECM1 (11717891_a_at) / Fold change /veh ECM1 (11717891_a_at) / RFU IL23R (11748794_a_at) / Fold change /veh IL23R (11748794_a_at) / RFU TNFAIP8L3 (11732012_x_at) / Fold change /veh TNFAIP8L3 (11732012_x_at) / RFU MBOAT4 (11741988_at) / Fold change /veh MBOAT4 (11741988_at) / RFU 11764193_at / Fold change /veh 11764193_at / RFU TMEM53 (11763286_at) / Fold change /veh TMEM53 (11763286_at) / RFU MAGEB2 (11727129_at) / Fold change /veh MAGEB2 (11727129_at) / RFU TMEM200A (11744735_a_at) / Fold change /veh TMEM200A (11744735_a_at) / RFU CCDC152 (11751479_a_at) / Fold change /veh CCDC152 (11751479_a_at) / RFU FAM211A (11726209_a_at) / Fold change /veh FAM211A (11726209_a_at) / RFU RGS16 (11746705_a_at) / Fold change /veh RGS16 (11746705_a_at) / RFU VCAN (11755009_s_at) / Fold change /veh VCAN (11755009_s_at) / RFU RHOB (11743442_s_at) / Fold change /veh RHOB (11743442_s_at) / RFU RGS16 (11720943_a_at) / Fold change /veh RGS16 (11720943_a_at) / RFU RGS16 (11720944_at) / Fold change /veh RGS16 (11720944_at) / RFU, VPS4B / Fold change vs veh, VPS4B / RFU, CREB1 / Fold change vs veh, CREB1 / RFU, DNAJC13 / Fold change vs veh, DNAJC13 / RFU, GNAQ / Fold change vs veh, GNAQ / RFU, CDK5R1 / Fold change vs veh, CDK5R1 / RFU, ZRANB3 / Fold change vs veh, ZRANB3 / RFU, CUL4A / Fold change vs veh, CUL4A / RFU, CCNY / Fold change vs veh, CCNY / RFU, UFL1 / Fold change vs veh, UFL1 / RFU, COG3 / Fold change vs veh, COG3 / RFU, DIAPH2 / Fold change vs veh, DIAPH2 / RFU, SKA2 / Fold change vs veh, SKA2 / RFU, AFF3 / Fold change vs veh, AFF3 / RFU, LMF1 / Fold change vs veh, LMF1 / RFU, IPO11 / Fold change vs veh, IPO11 / RFU, DFFB / Fold change vs veh, DFFB / RFU, FOXP1 / Fold change vs veh, FOXP1 / RFU, CARD8 / Fold change vs veh, CARD8 / RFU, STRN3 / Fold change vs veh, STRN3 / RFU, ADK / Fold change vs veh, ADK / RFU, RASSF2 / Fold change vs veh, RASSF2 / RFU, WIPF1 / Fold change vs veh, WIPF1 / RFU, LARP1B / Fold change vs veh, LARP1B / RFU, RASA1 / Fold change vs veh, RASA1 / RFU, RB1 / Fold change vs veh, RB1 / RFU, PPFIA1 / Fold change vs veh, PPFIA1 / RFU, MAT2A / Fold change vs veh, MAT2A / RFU, CCT5 / Fold change vs veh, CCT5 / RFU, WDR92 / Fold change vs veh, WDR92 / RFU, CUX1 / Fold change vs veh, CUX1 / RFU, TTC7A / Fold change vs veh, TTC7A / RFU, TMEM135 / Fold change vs veh, TMEM135 / RFU, DEPTOR / Fold change vs veh, DEPTOR / RFU, CPM / Fold change vs veh, CPM / RFU, DNAJB6 / Fold change vs veh, DNAJB6 / RFU, CACNA2D3 / Fold change vs veh, CACNA2D3 / RFU, DTX4 / Fold change vs veh, DTX4 / RFU, TFCP2 / Fold change vs veh, TFCP2 / RFU, GMCL1 /// GMCL1P1 / Fold change vs veh, GMCL1 /// GMCL1P1 / RFU, AEBP2 / Fold change vs veh, AEBP2 / RFU, SNHG1 /// SNORD22 /// SNORD25 /// SNORD26 /// SNORD27 /// SNORD28 /// SNORD29 /// SNORD31 / Fold change vs veh, SNHG1 /// SNORD22 /// SNORD25 /// SNORD26 /// SNORD27 /// SNORD28 /// SNORD29 /// SNORD31 / Fold change (Aza/veh), C12orf56 (ProbeSet 11735607_a_at) / Fold change (ACY-1035/veh), C12orf56 (ProbeSet 11735607_a_at) / Fold change (Aza/veh), FGFR1OP (ProbeSet 11751329_s_at) / Fold change (ACY-1035/veh), FGFR1OP (ProbeSet 11751329_s_at) / Fold change (Aza/veh), VPS36 (ProbeSet 11739960_a_at) / Fold change (ACY-1035/veh), VPS36 (ProbeSet 11739960_a_at) / RFU SYPL1 (11715823_x_at) / Fold change /veh SYPL1 (11715823_x_at) / RFU IGFBP7 (11715501_s_at) / Fold change /veh IGFBP7 (11715501_s_at) / RFU REEP3 (11722064_at) / Fold change /veh REEP3 (11722064_at) / RFU IGLL1 (11728026_x_at) / Fold change /veh IGLL1 (11728026_x_at): dose or concentration left out as unconfirmed
Settings: ProbeSet 11728271_at; LIST B

In the case of `Nc1ccc(-c2cccs2)cc1NC(=O)c1ccc2c(c1)cc(C1CC1)n2CCN1CCOCC1` [ACY-1035], the “RFU, ZNF330” value is reported as 663.85 RFU.

From PMC5218480 (PLoS ONE, 2017)
